Here are results for eight compounds from patent US20260102501A1, “ANTI-CANCER NUCLEAR HORMONE RECEPTOR-TARGETING COMPOUNDS” (Nuvation Bio Inc., priority 2022, published 2026).

Numbering of substitutions follows the chain as printed.

Experiment [1] concerns the target T1, AR (cytosol from LnCaP cells) (Homo sapiens, UniProt P10275, T878A).
T1 sequence (P10275 1-920 T878A): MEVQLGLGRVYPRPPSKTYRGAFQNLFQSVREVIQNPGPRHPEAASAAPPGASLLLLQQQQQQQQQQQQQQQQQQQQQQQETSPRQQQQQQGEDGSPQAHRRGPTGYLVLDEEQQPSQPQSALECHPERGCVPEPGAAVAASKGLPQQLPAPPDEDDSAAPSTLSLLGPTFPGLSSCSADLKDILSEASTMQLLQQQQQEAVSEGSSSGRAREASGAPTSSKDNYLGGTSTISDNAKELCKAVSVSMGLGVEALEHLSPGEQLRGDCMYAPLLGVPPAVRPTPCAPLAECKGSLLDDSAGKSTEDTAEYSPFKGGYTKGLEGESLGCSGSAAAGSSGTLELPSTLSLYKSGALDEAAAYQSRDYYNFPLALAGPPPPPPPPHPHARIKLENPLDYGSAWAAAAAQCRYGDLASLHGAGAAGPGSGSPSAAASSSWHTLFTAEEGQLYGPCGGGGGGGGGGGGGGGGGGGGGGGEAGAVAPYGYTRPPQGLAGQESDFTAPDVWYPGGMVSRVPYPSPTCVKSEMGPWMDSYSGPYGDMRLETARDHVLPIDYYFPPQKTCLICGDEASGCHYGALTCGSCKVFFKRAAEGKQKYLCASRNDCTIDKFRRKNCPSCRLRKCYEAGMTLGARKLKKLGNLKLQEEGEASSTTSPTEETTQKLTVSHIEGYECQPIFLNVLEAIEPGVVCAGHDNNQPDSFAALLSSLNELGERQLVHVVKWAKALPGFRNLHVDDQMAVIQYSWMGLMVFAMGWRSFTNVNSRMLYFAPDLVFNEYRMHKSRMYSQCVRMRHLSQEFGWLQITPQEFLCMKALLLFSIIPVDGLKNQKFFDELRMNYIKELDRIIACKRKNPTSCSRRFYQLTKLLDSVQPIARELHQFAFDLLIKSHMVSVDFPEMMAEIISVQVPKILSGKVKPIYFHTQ
Put plainly: AR binding assay (3H-R1881 displacement).
Experimental: The plate was then centrifuged at 3000 rpm for 30 minutes at 4° C.

Experiment [2] deals with T2, GR (cytosol from IM-9 cells) (Homo sapiens, UniProt P04150).
T2 sequence (P04150 1-777): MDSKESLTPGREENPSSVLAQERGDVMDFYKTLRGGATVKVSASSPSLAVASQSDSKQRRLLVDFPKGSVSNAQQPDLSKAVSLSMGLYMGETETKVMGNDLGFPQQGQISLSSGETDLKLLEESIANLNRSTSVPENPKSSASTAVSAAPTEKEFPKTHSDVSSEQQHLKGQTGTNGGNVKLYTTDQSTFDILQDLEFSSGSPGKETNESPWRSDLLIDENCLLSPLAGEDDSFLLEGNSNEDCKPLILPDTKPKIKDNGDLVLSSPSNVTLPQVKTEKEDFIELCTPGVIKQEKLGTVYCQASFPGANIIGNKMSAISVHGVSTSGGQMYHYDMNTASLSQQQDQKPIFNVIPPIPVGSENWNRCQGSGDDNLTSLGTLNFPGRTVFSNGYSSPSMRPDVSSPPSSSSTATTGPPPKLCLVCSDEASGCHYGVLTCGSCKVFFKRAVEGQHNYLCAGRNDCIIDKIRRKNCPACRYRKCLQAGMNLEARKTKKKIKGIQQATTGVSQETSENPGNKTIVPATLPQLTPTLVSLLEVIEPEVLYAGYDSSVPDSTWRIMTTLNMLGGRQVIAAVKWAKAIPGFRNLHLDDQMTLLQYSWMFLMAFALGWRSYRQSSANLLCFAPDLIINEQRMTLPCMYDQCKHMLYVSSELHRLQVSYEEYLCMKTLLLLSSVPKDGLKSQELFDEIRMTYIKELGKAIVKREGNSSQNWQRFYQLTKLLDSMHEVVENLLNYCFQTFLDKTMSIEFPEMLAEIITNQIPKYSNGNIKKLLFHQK
Put plainly: GR binding assay (3H-Dexamethasone displacement).

In experiment [3] the target is T3, full-length androgen receptor (HEK293 cells stably expressing) (Homo sapiens, UniProt P10275).
T3 sequence (P10275 1-920): T1 sequence (P10275 1-920 T878A) with A878T
Briefly: AR antagonism assay (luciferase reporter). On the technique in general: Reporter assays use an easily measured gene product as a stand-in for the process of interest.
Experimental: AR antagonism assay: To evaluate AR antagonist activity, test compound was added to the assay plate (top dose 10 μM, 3 fold serial dilution, 10 point dose response). HEK293 cells stably expressing the full-length androgen receptor were seeded at a density of 20000 cells/well in the assay plate. The assay plate was then incubated at room temperature for 10 minutes and at 37° C. 5% CO2 for 20 minutes. Testosterone was added to the assay plate at 1 nM final concentration and the assay plate incubated at 37° C., 5% CO2 for 20 h. […] Steady-glo was added to the assay plate and mixed at room temperature for 20 minutes on an orbital shaker, before reading out on the En Vision plate reader.

The next experiment concerns LNCap cells. Briefly: Cell viability assay (CellTiterGlo). The experiment is classed as cell-based. As to conditions: Homo sapiens, 144 h, 6 days incubation, CellTiterGlo, read-out: LNCap (IC50). For orientation: In ATP-based viability assays light output follows the ATP content of the culture.
Experiment [4] addresses T4, ligand binding domain of the glucocorticoid receptor (HEK293 cells stably expressing) (Homo sapiens, UniProt P04150).
T4 sequence (P04150 524-758 limits assumed): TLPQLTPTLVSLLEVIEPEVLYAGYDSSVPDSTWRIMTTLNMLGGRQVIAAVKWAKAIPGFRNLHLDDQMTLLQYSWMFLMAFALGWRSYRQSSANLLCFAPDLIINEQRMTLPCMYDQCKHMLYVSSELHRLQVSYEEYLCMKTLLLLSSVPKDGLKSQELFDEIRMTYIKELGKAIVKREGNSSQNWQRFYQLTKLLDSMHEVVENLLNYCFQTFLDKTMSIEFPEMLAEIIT
Put plainly: GR antagonism assay (luciferase reporter).
Experimental: HEK293 cells stably expressing the ligand binding domain of the glucocorticoid receptor were seeded at a density of 40000 cells/well in the assay plate. The assay plate was then incubated at 37° C., 5% CO2 for 30 minutes. Dexamethasone was added to the assay plate at 1.5 nM final concentration and the assay plate incubated at 37° C., 5% CO2 for 20 h. After the incubation period, Dual-glo luciferase reagent was added to the assay plate and mixed at room temperature for 20 minutes on an orbital shaker, before reading out on the En Vision plate reader. 50 μL of Stop & Glo reagent was added to assay plate, mixed at room temperature for 20 minutes, and read on the Envision plate reader.

A further experiment has as its system 22Rv1 cells. Put plainly: Cell viability assay (CellTiterGlo). As to conditions: Homo sapiens, 22Rv1, 144 h, read-out: 22RV1 (IC50, nM).
The next experiment relates to IEC6 cells. Put plainly: Cell viability assay (CellTiterGlo). The note with it: Rattus norvegicus, IEC-6, 144 h, read-out: IEC-6 (IC50, nM).

`CC[C@@]1(OC(=O)N2CCN(CC3CCN(c4ccc(C(=O)N[C@H]5CC[C@H](Oc6ccc(C#N)c(Cl)c6C)CC5)nn4)CC3)CC2)C(=O)OCc2c1cc1n(c2=O)Cc2cc3cc(OC)ccc3nc2-1` [Compound 23, (S)-4-Ethyl-9-methoxy-3,14-dioxo-3,4,12,14-tetrahydro-1H-pyrano[3′,4′:6,7]indolizino[1,2-b]quinolin-4-yl 4-((1-(6-(((1r,4r)-4-(3-chloro-4-cyano-2-methylphenoxy)cyclohexyl)carbamoyl)pyridazin-3-yl)piperidin-4-yl)methyl)piperazine-1-carboxylate]: the IC50 in experiment [1] is 0.01 to 0.1 µM; in experiment [2] it was > 1 µM; in experiment [3], > 1 µM; with LNCap cells it was 0.01 to 0.1 µM; in experiment [4] it was > 1 µM; with 22Rv1 cells it was 101 to 1000 nM.

Turning to `CC[C@@]1(O)C(=O)OCc2c1cc1n(c2=O)Cc2cc3c(CN4CCN(C(=O)C5CCN(c6ccc(C(=O)N[C@H]7CC[C@H](Oc8ccc(C#N)c(Cl)c8C)CC7)nn6)CC5)CC4)c(O)ccc3nc2-1` [Compound 25, N-((1r,4r)-4-(3-Chloro-4-cyano-2-methylphenoxy)cyclohexyl)-6-(4-(4-(((S)-4-ethyl-4,9-dihydroxy-3,14-dioxo-3,4,12,14-tetrahydro-1H-pyrano[3′,4′:6,7]indolizino[1,2-b]quinolin-10-yl)methyl)piperazine-1-carbonyl)piperidin-1-yl)pyridazine-3-carboxamide], the IC50 is < 0.01 µM in experiment [1]; > 1 µM in experiment [2]; > 1 µM in experiment [3]; < 0.01 µM in the experiment with LNCap cells; > 1 µM in experiment [4]; 10 to 100 nM with 22Rv1 cells.

Consider `CC[C@@]1(O)C(=O)OCc2c1cc1n(c2=O)Cc2c-1nc1cc(F)c(C)c3c1c2[C@@H](NC(=O)CN1CCN(C(=O)CCCCCC2CCN(c4ccc(C(=O)N[C@H]5CC[C@H](N(C)c6ccc(C#N)c(Cl)c6)CC5)nn4)CC2)CC1)CC3` [Compound No. 46], for which the IC50 was 0.101 to 1 µM in experiment [1]; > 1 µM in experiment [3]; 0.101 to 1 µM in the experiment on LNCap cells; > 1000 nM in the experiment on IEC6 cells; 101 to 1000 nM in the experiment on 22Rv1 cells.

As to `CC[C@@]1(O)C(=O)OCc2c1cc1n(c2=O)Cc2c-1nc1cc(F)c(C)c3c1c2[C@@H](NC(=O)CN1CCN(CCCCCCC2CCN(c4ccc(C(=O)N[C@H]5CC[C@H](Oc6ccc(C#N)c(Cl)c6C)CC5)nn4)CC2)CC1)CC3` [Compound No. 48, N-((1r,4r)-4-(3-chloro-4-cyano-2-methylphenoxy)cyclohexyl)-6-(4-(6-(4-(2-(((1S,9S)-9-ethyl-5-fluoro-9-hydroxy-4-methyl-10,13-dioxo-2,3,9,10,13,15-hexahydro-1H,12H-benzo[de]pyrano[3′,4′:6,7]indolizino[1,2-b]quinolin-1-yl)amino)-2-oxoethyl)piperazin-1-yl)hexyl)piperidin-1-yl)pyridazine-3-carboxamide], the IC50 in experiment [1] is 0.01 to 0.1 µM; in experiment [3], 0.101 to 1 µM; in the experiment on LNCap cells, 0.101 to 1 µM; with IEC6 cells, > 1000 nM; with 22Rv1 cells, 101 to 1000 nM.

For `CC[C@@]1(O)C(=O)OCc2c1cc1n(c2=O)Cc2cc3c(CN4CCN(C(=O)CCCCCC5CCN(c6ccc(C(=O)N[C@H]7CC[C@H](N(C)c8ccc(C#N)c(Cl)c8)CC7)nn6)CC5)CC4)c(O)ccc3nc2-1` [Compound No. 49], the IC50 is 0.01 to 0.1 µM in experiment [1]; > 1 µM in experiment [3]; 0.01 to 0.1 µM with LNCap cells; > 1000 nM in the experiment with IEC6 cells; 10 to 100 nM with 22Rv1 cells.

As to `CC[C@@]1(O)C(=O)OCc2c1cc1n(c2=O)Cc2cc3c(CN4CCN(C(=O)CCCCCC5CCN(c6ccc(C(=O)N[C@H]7CC[C@H](Oc8ccc(C#N)c(Cl)c8C)CC7)nn6)CC5)CC4)c(O)ccc3nc2-1` [Compound No. 50], the IC50 was 0.01 to 0.1 µM in experiment [1]; > 1 µM in experiment [3]; 0.01 to 0.1 µM in the experiment with LNCap cells; 101 to 1000 nM with IEC6 cells; 10 to 100 nM in the experiment with 22Rv1 cells.

Regarding `CC[C@@]1(O)C(=O)OCc2c1cc1n(c2=O)Cc2cc3c(CN4CCN(CCCCCCC5CCN(c6ccc(C(=O)N[C@H]7CC[C@H](Oc8ccc(C#N)c(Cl)c8C)CC7)nn6)CC5)CC4)c(O)ccc3nc2-1` [Compound No. 52], the IC50 fell in the range of 0.01 to 0.1 µM in experiment [1]; 0.01 to 0.1 µM in experiment [3]; 0.01 to 0.1 µM in the experiment on LNCap cells; 101 to 1000 nM in the experiment with IEC6 cells; 10 to 100 nM in the experiment on 22Rv1 cells.

Turning to `CC[C@@]1(O)C(=O)OCc2c1cc1n(c2=O)Cc2cc3c(CN4CCN(CC5CCN(c6ccc(N7C(=S)N(c8ccc(C#N)c(Cl)c8)C(=O)C7(C)C)cc6)CC5)CC4)c(O)ccc3nc2-1` [Compound No. 53, (S)-2-chloro-4-(3-(4-(4-((4-((4-ethyl-4,9-dihydroxy-3,14-dioxo-3,4,12,14-tetrahydro-1H-pyrano[3′,4′:6,7]indolizino[1,2-b]quinolin-10-yl)methyl)piperazin-1-yl)methyl)piperidin-1-yl)phenyl)-4,4-dimethyl-5-oxo-2-thioxoimidazolidin-1-yl)benzonitrile], the IC50 in experiment [1] fell in the range of 0.01 to 0.1 µM; in experiment [3] it was 0.01 to 0.1 µM; in the experiment on LNCap cells, 0.01 to 0.1 µM; in the experiment on IEC6 cells, 101 to 1000 nM; with 22Rv1 cells, 10 to 100 nM.

The IC50 is the midpoint of a concentration-inhibition curve.
